Tests used:
CCD-19 Lu cells = test: MTT cytotoxicity assay on normal lung fibroblast CCD-19 Lu cells; type: cell-based; details: 72 h; even at concentration 20 times the IC50 on H1975 cells
Description: (§1) H1975 and CCD-19 Lu was purchased from ATCC (American type culture collection). H1975 was cultivated with RPMI 1640 medium supplement with 10% fetal bovine serum (Gibco, Big Cabin, Okla., ME, USA), 100 U/mL, penicillin and 100 μg/mL and streptomycin (Gibco, Big Cabin, Okla., ME, USA). CCD-19 Lu was cultivated with MEM medium supplemented with 10% FBS, 100 U/ml penicillin and 100 μg/ml streptomycin. All cells were cultivated at 37° C. in a humidified atmosphere of 5% CO2.
(§2) H1975 cells were seeded in a 96-well microplate with 3000 cells/well confluence, and put into the incubator overnight for cells adhesion. Different concentrations of the compound F321-0719 were added with Dimethyl sulfoxide (DMSO) as vehicle control. The microplates were incubated for further 72 h. Each dosage was repeated in triplicate. 10 μL of MTT (5 mg/mL) solution was added to each well. The plate was placed back into the incubator for 4 hours. After that, 100 μL of resolved solution (10% SDS and 0.1 mM HCL) was added to each well. Before dissolving the formazan crystals, the microplate was put back into the incubator for another 4 hours. The absorbance of the plate was measured at 570 nm with reference 650 nm by a microplate reader (Tecan, Morrisville, N.C., USA). Cell viability was calculated by percentages of the absorbance of the treatment group divided by the absorbance of untreated group. […]

[1] = as above; type: cell-based; details: human, CCD-19 Lu normal lung fibroblast cells, CCD-19 Lu normal lung cells, MTT
Description: as §1, §2

[2] = test system: phosphorylation of AMPK and ACC; test: Western blot analysis of AMPK and ACC phosphorylation in H1975 cells; type: cell-based; details: β-actin loading control
Description: After incubating H1975 cells with the compound F321-0719 for 24 h, H1975 cells were harvested and washed with cold 1×PBS. Then, cells were lysed with ice-cold RIPA lysis buffer with protease and phosphatase inhibitors added to extract the cell protein extraction. The supernatants were collected by centrifugation at 12,000 g, for 5 minutes. The quantitation of total protein extraction was measured by Bio-Rad DCTM protein assay kit (Bio-Rad, Philadelphia, Pa., USA). Then 30 μg of protein were loaded and electrophoretically separated on 10% SDS-PAGE gel and then transferred to Nitrocellulose (NC) membrane. Membranes were blocked with 5% non-fat milk and […] containing 0.1% Tween-20 (TBST) for 1 hour at room temperature. After 1 hour, membranes were incubated with primary antibodies (1:1000 dilution) against β-actin, total/phosphor-ACC, total-AMPK, and against phosphor-AMPK, at 4° C. with gently shaking overnight. Membranes were washed with TBST for 3 times (5 minutes/time), and incubated with secondary fluorescent antibody (1:10000 dilutions) for 1 hour at room temperature. Rewashing with TBST for 3 times (15 minutes/time), the stripes were visualized by LI-COR Odessy scanner (Belfast, Me., USA).

AMPK = AMPK enzyme activity assay (CycLex AMPK Kinase Assay Kit); type: biochemical; details: at 2.5 μM of the compound
Excerpt: The CycLex AMPK Kinase Assay Kit (CycLex Co., Ltd., Nagano, Japan) was used to detect the activation of AMPK by the compound F321-0719. Compound C was used as AMPK inhibitor, and AMPK active enzyme was used as a positive control for phosphorylation.

H1975 cells [3] = test: Cell cycle analysis (PI staining, flow cytometry) in H1975 cells; type: cell-based; details: 5 μM and 10 μM, 48 h
Description: H1975 cells were plated with 1.5×10^5 cells/well at a 6-well plate and cultured overnight for attachment. Cells were treated with the compound F321-0775 at 0, 2.5, 5, 10 μM for 48 h. After treatment, all cells were harvested by trypsinization, and collected by centrifugation. After removing all suspension, cells were washed by PBS. Cells pellets were re-suspended in 70% ethanol at 4° C. overnight. Cells were centrifuged at 1000 rpm for 5 min to remove all the ethanol. Each cell pellet was re-suspended in 500 μl PI staining solution at 37° C. for 30 min in dark. Then, they were washed in PBS twice. Cells were re-suspended in 300 μl 1× binding buffer and transferred to the flow cytometer (BD FACS Aria III).

H1975 cells [4] = test: MTT cytotoxicity assay on H1975 NSCLC cells; type: cell-based; details: Homo sapiens, NCI-H1975, H1975, EGFR L858R/T790M, 72 h treatment
Description: as §1, §2

H1975 cells [5] = test: Apoptosis assay (Annexin-V FITC/PI flow cytometry) in H1975 cells; type: cell-based; details: 48 h treatment, vs control group
Description: H1975 cells (1×10^5 cells/well) were seeded in a 6-well plate for 24 h, and treated with the indicated concentrations of the compound F321-0719 for an additional 48 h at 37° C. After 48 h, the cells were washed by ice-cold 1×PBS (Phosphate-buffered saline) once and harvested by trypsination. Then cells were centrifuged, collected and re-suspended in ice-cold 1×PBS. After removing the supernatants, cell pellets were re-suspended in 100 μL 1× Annexin-binding buffer. The cells were then double-stained with Annexin-V FITC and PI (100 μg/mL) of 2 μL respectively for 15 min at room temperature in dark. After that, 300 μL 1× Annexin-binding buffer was added. Apoptotic cells were quantitatively counted by a BD Aria III Flow Cytometer (BD Biosciences, San Jose, Calif., USA).

In the case of `O=C(Nc1cccc(-c2noc(C3CCCC3)n2)c1)c1cc2ccccc2[nH]1` [F321-0719], the “cytotoxicity on CCD-19 Lu cells” value (CCD-19 Lu cells) is reported as “no cytotoxicity”, the IC50 at 72 h [1] is reported as greater than 100 µM and the “phosphorylation of AMPK and ACC (western blot)” value [2] is reported as “activated phosphorylation of both AMPK and ACC in a dose-dependent manner”. For the same compound, the “AMPK enzyme activity (fold of AMPK kinase group)” value (AMPK) was “enhanced”, the “G2 phase of cell cycle distribution” value (H1975 cells [3]) was “increased” and the IC50 (H1975 cells [4]) was 3.46 ± 1.71 µM. For the same compound, the apoptosis level (H1975 cells [5]) was “induced significant level of apoptosis in a concentration-dependent manner”.
